In assay [1] the target is T1, human complement factor D (Homo sapiens, UniProt P00746).
T1 construct: purchased R&D Systems 1824-SE
The assay can be described thus: In vitro enzyme inhibition (Z-Lys-SBzl/DTNB absorbance assay). The assay is classed as biochemical. Conditions: Complement Factor D (R&D Systems), substrate Z-Lys-SBzl, A405 nm; read-out: CFD IC50. In short, it runs like this: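 Factor D (6.25 ng/μL before addition) preincubated 5 min RT with compound (8 points from 50 μM, 6-fold, 0.5% DMSO final) in 50 mM Tris/HCl pH 7.5, 1 M NaCl, then Z-Lys-SBzl/DTNB added (200 μM each before addition). A405 read kinetically every 30 s for 60 min; IC50 from variable-slope fit, controls with and without enzyme.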

For assay [2], the system named is alternative pathway (AP) hemolytic activity. Put plainly: AP hemolysis inhibition assay. The assay is classed as cell-based. Conditions: Erythrocyte, 1 h; Normal Human Serum, chicken or rabbit erythrocytes, 60 min at 37° C., OD 414 nm. On the procedure:
The ability of the compounds disclosed herein to inhibit alternative pathway (AP) hemolytic activity was determined. Red blood cells (RBC), chicken or rabbit erythrocyctes (SbjBio), were washed three time using assay buffer containing 0.1% gelatin, 5 mM Veronal, 145 mM NaCl, 0.025% NaN3, 10 mM Mg-EGTA pH 7.3. In 100 μL reaction system, 1300 to 1500 ng/μL final concentration of Normal Human Serum (CompTech) was incubated with compound for 15 min at 37° C. Then 2×10^6 cells/well of chicken or rabbit erythrocytes in assay buffer were added and incubated for an additional 60 min at 37° C. Positive control (100% lysis) consists of serum and RBC, and negative control (0% lysis) consists of assay buffer and RBC only. Samples were centrifuged at 2000 g for 5 min, and supernatants collected. Optical density of the supernatant is monitored at 414 nm using Synergy 2 (BioTek). Percentage lysis in each sample is calculated relative to positive control (100% lysis).
Table 3 discloses the inhibitory activity of the compounds provided herein in the hemolysis assay.

T1 sequence (P00746 26-253): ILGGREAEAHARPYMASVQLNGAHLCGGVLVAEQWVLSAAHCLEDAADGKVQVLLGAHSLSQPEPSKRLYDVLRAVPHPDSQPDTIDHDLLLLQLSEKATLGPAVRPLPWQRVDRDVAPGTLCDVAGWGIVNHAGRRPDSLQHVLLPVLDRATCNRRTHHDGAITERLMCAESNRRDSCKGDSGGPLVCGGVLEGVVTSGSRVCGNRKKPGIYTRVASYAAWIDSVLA

In general, IC50 refers to the midpoint of a concentration-inhibition curve. As a reminder, the EC50 is the concentration giving half of the maximal effect. In the case of `CC(=O)c1nn(CC(=O)N2[C@@H]3CC[C@@H](C3)[C@H]2C(=O)Nc2cccc(Cl)n2)c2cnccc12` [Example 66, (1R,3S,4S)-2-(2-(3-acetyl-1H-pyrazolo[3,4-c]pyridin-1-yl)acetyl)-N-(6-chloropyridin-2-yl)-2-azabicyclo[2.2.1]heptane-3-carboxamide], the IC50 in assay [1] is 100 to 1000 nM. Further, the EC50 in assay [2] was in the range of 100 to 1000 nM.

`CC(=O)c1nn(CC(=O)N2CC[C@H]2C(=O)NCc2cccc(Cl)c2F)c2ccccc12` [Example 190, (S)-1-(2-(3-acetyl-1H-indazol-1-yl)acetyl)-N-(3-chloro-2-fluorobenzyl)azetidine-2-carboxamide]: in assay [1], the IC50 was below 100 nM. Besides, in assay [2], the EC50 is below 100 nM.

Turning to `NC(=O)c1nn(CC(=O)N2[C@@H]3CC[C@@H](C3)[C@H]2C(=O)NCc2cccc(Cl)c2F)c2ccccc12` [Example 38, 1-(2-((1R,3S,4S)-3-((3-chloro-2-fluorobenzyl)carbamoyl)-2-azabicyclo[2.2.1]heptan-2-yl)-2-oxoethyl)-1H-indazole-3-carboxamide], in assay [1], the concentration for half-maximal inhibition (IC50) was in the range of 100 to 1000 nM. Moreover, the EC50 in assay [2] lay in the range of 1000 to 10000 nM.

Consider `NC(=O)c1nn(CC(=O)N2C3CCC(C3)[C@H]2C(=O)Nc2cccc(Cl)n2)c2ccc(C3CC3)cc12` (stereo partly drawn) [Example 11, 1-(2-((3S)-3-((6-chloropyridin-2-yl)carbamoyl)-2-azabicyclo[2.2.1]heptan-2-yl)-2-oxoethyl)-5-cyclopropyl-1H-indazole-3-carboxamide], for which, in assay [1], the IC50 lay in the range of 100 to 1000 nM. Also, the EC50 in assay [2] lay in the range of 1000 to 10000 nM.

As for `NC(=O)c1nn(CC(=O)N2[C@H](C(=O)Nc3cccc(Cl)n3)C[C@@H]3CCC[C@@H]32)c2ccc(F)cc12` [Example 169, 1-(2-((2S,3aS,6aS)-2-((6-chloropyridin-2-yl)carbamoyl)hexahydrocyclopenta[b]pyrrol-1(2H)-yl)-2-oxoethyl)-5-fluoro-1H-indazole-3-carboxamide], the IC50 in assay [1] fell in the range of 100 to 1000 nM. Also, in assay [2], the EC50 fell in the range of 100 to 1000 nM.

The values above are taken from patent US20190127366A1 (LifeSci Pharmaceuticals, Inc., priority 2015, published 2019).
